Active and inactive are the calls of the source. The rule behind the calls is not given here. Where a SMILES comes first, the peptide text is derived from it. The star is where a group is joined. X1 = [N-]=[N+]=Nc1ccc(C(=O)NCCN2C(=O)CC(*)C2=O)c(O)c1; Biotin = O=C1N[C@H]2[C@H](CS[C@H]2CCCCC(=O)*)N1
Legend:
Type in all cases: cell-based
[1] = molecular target: KiSS-1 receptor (Homo sapiens) (UniProt Q969F8); assay: Binding affinity to GPR54 in HEK293 cells at 500 nM incubated for 1 hr followed by UV irradiation for 30 secs by Western blot analysis
[2] = molecular target: KiSS-1 receptor (Homo sapiens) (UniProt Q969F8); assay: Competitive binding affinity to GPR54 in HEK293 cells at 500 nM incubated for 1 hr followed by UV irradiation for 30 secs by Western blot analysis in presence of unlabeled Kp-10
[3] = molecular target: KiSS-1 receptor (Homo sapiens) (UniProt Q969F8); assay: Binding affinity to GPR54 in HEK293 cells at 500 nM incubated for 1 hr followed by UV irradiation for 30 secs by Western blot analysis in presence of PNGase F

Sequence of KiSS-1 receptor (Homo sapiens) (Q969F8 whole entry): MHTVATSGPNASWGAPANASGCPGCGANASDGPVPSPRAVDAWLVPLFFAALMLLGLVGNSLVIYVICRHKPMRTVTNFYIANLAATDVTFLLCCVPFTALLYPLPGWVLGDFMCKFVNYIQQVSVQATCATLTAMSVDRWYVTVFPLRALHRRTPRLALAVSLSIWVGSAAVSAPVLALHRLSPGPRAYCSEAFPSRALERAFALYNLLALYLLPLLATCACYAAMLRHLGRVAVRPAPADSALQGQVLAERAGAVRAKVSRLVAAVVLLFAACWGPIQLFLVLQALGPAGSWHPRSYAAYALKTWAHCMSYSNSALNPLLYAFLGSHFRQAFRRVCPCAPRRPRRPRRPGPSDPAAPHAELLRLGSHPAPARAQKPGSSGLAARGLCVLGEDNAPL

CC(C)C[C@H](NC(=O)CNC(=O)[C@H](Cc1ccccc1)NC(=O)[C@H](CO)NC(=O)[C@H](CC(N)=O)NC(=O)[C@H](Cc1c[nH]c2ccccc12)NC(=O)[C@H](CSC1CC(=O)N(CCNC(=O)c2ccc(N=[N+]=[N-])cc2O)C1=O)NC(=O)[C@H](Cc1ccc(O)cc1)NC(=O)[C@H](CC(N)=O)NC(=O)[C@@H]1CCCN1C(=O)[C@H](CC(C)C)NC(=O)[C@H](CC(=O)O)NC(=O)CCCC[C@@H]1SC[C@@H]2NC(=O)N[C@@H]21)C(=O)N[C@@H](CCCNC(=N)N)C(=O)N[C@@H](Cc1ccccc1)C(N)=O (some centres undefined) (Biotin-DLPNYC(X1)WNSFGLRF-NH2)
Activity [1]: inactive

CC(C)C[C@H](NC(=O)CNC(=O)[C@H](Cc1ccccc1)NC(=O)[C@H](CO)NC(=O)[C@H](CC(N)=O)NC(=O)[C@H](CSC1CC(=O)N(CCNC(=O)c2ccc(N=[N+]=[N-])cc2O)C1=O)NC(=O)[C@H](CC(N)=O)NC(=O)[C@H](Cc1ccc(O)cc1)NC(=O)[C@H](CC(N)=O)NC(=O)[C@@H]1CCCN1C(=O)[C@H](CC(C)C)NC(=O)[C@H](CC(=O)O)NC(=O)CCCC[C@@H]1SC[C@@H]2NC(=O)N[C@@H]21)C(=O)N[C@@H](CCCNC(=N)N)C(=O)N[C@@H](Cc1ccccc1)C(N)=O (some centres undefined) (Biotin-DLPNYNC(X1)NSFGLRF-NH2)
Activity [2]: inactive
Activity [3]: inactive

CC(C)C[C@H](NC(=O)CNC(=O)[C@H](Cc1ccccc1)NC(=O)[C@H](CO)NC(=O)[C@H](CC(N)=O)NC(=O)[C@H](Cc1c[nH]c2ccccc12)NC(=O)[C@H](CC(N)=O)NC(=O)[C@H](CSC1CC(=O)N(CCNC(=O)c2ccc(N=[N+]=[N-])cc2O)C1=O)NC(=O)[C@H](CC(N)=O)NC(=O)[C@@H]1CCCN1C(=O)[C@H](CC(C)C)NC(=O)[C@H](CC(=O)O)NC(=O)CCCC[C@@H]1SC[C@@H]2NC(=O)N[C@@H]21)C(=O)N[C@@H](CCCNC(=N)N)C(=O)N[C@@H](Cc1ccccc1)C(N)=O (some centres undefined) (Biotin-DLPNC(X1)NWNSFGLRF-NH2)
Activity [1]: inactive

Reference: ChEMBL document CHEMBL2380268, “Characterization of the receptor binding residues of kisspeptins by positional scanning using peptide photoaffinity probes” (Bioorg Med Chem Lett, 2013)
